This note sets out measurements from patent US20060148679A1, “Glycosolated enkephalin agents” (priority 2003, published 2006).

For the experiment, the system named is male ICR mice. In words: 55° C. tail flick test for antinociception. The experiment is classed as in vivo. As to the method: The mouse anti-nociception tests were conducted with male ICR mice weighing 25-35 grams using the 55° C. tail flick test. A baseline latency was taken for each mouse. Then the mice were injected with drug and tested for antinociception at various times post-injection. A ten second cut off point was used to avoid tissue damage. The percent of antinociception was calculated as ((Test latency-Control Latency)/(10-Control Latency))×100. The majority of the drugs were tested at varying dosages.
Note the in the nomenclature used in Table 2, the D-threonine residues are indicated at “t,” the “L-Ser” indicate the isomer of serine and not a second leucine, and the sugars are indicated in parenthesis at their site of attachment. The molecules have been tested for anti-nociception in the […] animal model using the standard tail flick assay. The molecules were tested for binding to the opioid receptors and for analgesic effect delivered either to the brain (ICV) or to the bloodstream (IV). Table 2 is appended to the end of this specification.

Turning to `CN1CC[C@]23c4c5ccc(O)c4O[C@H]2[C@@H](O)C=C[C@H]3[C@H]1C5` [Morphine], the “IV (Mouse)” value (delivered to the bloodstream (i.v.)) was found to be 6.3 µmol/kg. Under “delivered to the brain (i.c.v.)”, the “ICV (Mouse) IC50” value was determined as 2.7 nmol.
